Source: patent US11390625B2, “Aryl-phosphorus-oxygen compound as EGFR kinase inhibitor” (Chia Tai Tianqing Pharmaceutical Group Co., Ltd., priority 2017, dated 2022)

Experiments:
[1] = system: A431 cells (EGFR WT); test: Cell antiproliferation experiment (1), A431 cells, CellTiter Glo; format: cell-based; settings: Homo sapiens, A-431, 72 h, read-out: anti-proliferation effect on cells A431 EGFR WT IC50
Experimental: 1) Cell Culture and Passage
(1) A431 medium: 88% DMEM+10% fetal bovine serum+1% L-glutamine+1% double-antibody
(2) A431 cells were isolated and passaged every 3-4 days, wherein the number of the cells for 3-day passage was 5e6 cells per T75 culture flask, and the number of the cells for 4-day passage was 3e6 cells per T75 culture flask.
2) Day 1: Preparation of Cell Plate
(1) Phosphate buffer, trypsin, and a culture medium were placed in a water bath at 37° C. to preheat.
(2) The original medium was removed from the cell culture flask and washed once with 6 mL of PBS.
(3) 5 mL of phosphate buffer was pipetted into the culture flask to rinse the cells (passage 17), and then the liquid was discarded.
(4) The cell culture flask was added with 3.5 mL of trypsin, and shaken gently, trypsin was removed after fully contact with the cells, and then the culture flask was placed in an incubator containing 5% CO2 at 37° C. for about 1 minute;
(5) The cells were resuspended in 10 mL cell culture medium, and about 0.6 mL of cell suspension was take out for counting (ViCell XR);
(6) The cell suspension was diluted with the medium to the cell density of 5e4 cells per ml, which was required for plating (cell concentration: 2500 cells per well);
(7) 100 μL of phosphate buffer solution was added to each well around the cell plate, while 50 μL of the cell suspension was added to other wells, and the plate was incubated overnight in a incubator containing 5% CO2 at 37° C.
(1) 9 μL of the compound (concentration: 1 mM) was added into a shallow well plate for Echo.
(2) The shallow well plate was centrifuged at 1000 rpm for 10 s and the cell plate was removed from the incubator.
(3) According to the layout of the microplate, the compounds was diluted with a three-fold concentration gradient using Echo, each compound was diluted to 10 concentration gradients and 250 nL of the diluted compounds was respectively added to the cell plate, and then the cell plate was returned to the incubator and further incubated for 3 days.
4) Day 5: Adding CTG and Reading the Plate
(1) After incubation for 72 h, 25 μL of CellTiter Glo was added to each well of the cell plate, followed by shaking the plate for 10 min in the dark.
(2) The plate was read on Envision.
Data analysis: By computer fitting, the corresponding concentration of the compound at 50% inhibition rate was read as the IC50 of the compound for inhibiting cell activity.

[2] = target: EGFR (WT) (Homo sapiens (Human), UniProt P00533); test: Enzyme activity experiment (2): EGFR WT enzyme inhibition; format: biochemical
Experimental: (§1) 1. Gradient Dilution of the Compound:
(§2) The dilution and transfer of the compounds were completed by Echo by Labcyte Inc., with a three-fold concentration gradient, a total of 11 dose points, and 100 nL of the compounds per well. The maximum concentration of the test compounds in the kinase reaction solutions was 1000 nM. The maximum concentration of the reference compound (Crizotinib & AP26113) in the kinase reaction solution was 1000 nM. The maximum concentration of the reference compound (AZD9291) in the kinase reaction solution was 300 nM.
(§3) The plate was centrifuged at a speed of 1000 rpm for 60 seconds. The test plate was incubated at 23° C. for 15 minutes.
(§4) (3) The test plate was film sealed and incubated at 23° C. for 90 minutes.
(§5) (4) The test plate was added with 2× detection solution (4 nM TK antibody and 125 nM XL665), 10 μL per well, and centrifuged at a speed of 1000 rpm for 60 seconds, and film sealed, which was incubated at 23° C. for 60 minutes.
(§6) (5) The plate was read on the Multi-Mark Detector Envision.

[3] = target: EGFR (C797S/T790M/L858R) (Homo sapiens (Human), UniProt P00533, C797S/L858R/T790M); test: Enzyme activity experiment (2): EGFR (C797S/T790M/L858R) enzyme inhibition; format: biochemical
Experimental: as §1, §2, §3, §4, §5, §6

[4] = target: EGFR (Δ19del/T790M/C797S) (Homo sapiens, UniProt P00533, C797S/T790M, form not given); test: Enzyme activity experiment (1): EGFR (Δ19del/T790M/C797S) enzyme inhibition; format: biochemical; settings: read-out: EGFR (Δ19del/T790M/C797S) IC50
Experimental: 1) 10 μL of the compounds to be tested and reference compounds diluted to 10 mM were taken into an Echo LDV plate, which were diluted according to the compound profile with Echo.
1) 1×enzyme reaction buffer was prepared: 1× enzyme buffer, 5 mM MgCl2, 1 mM DTT (dithiothreitol), water.
2) A mixed solution of 10 nM enzyme (final concentration of 5 nM) and 2 μM substrate (final concentration of 1 μM) and a solution containing the substrate alone were prepared with the diluted enzyme reaction buffer.
3) 5 μL of the substrate was added into A1-H1, J24-P24 (the number of the well position), and 5 μL of the mixture of the enzyme and substrate was added into the remaining wells.
4) Centrifugation was performed at 1000 rpm at 23° C. for 30 s.
5) Incubation was performed at 23° C. for 15 min.
7) Centrifugation was performed at 1000 rpm at 23° C. for 30 s.
8) Incubation was performed at 23° C. for 60 min.
9) 10 μL of 250 nM TK Antibody-Crypate (a final concentration of 125 nM) and 1×D2 (a final concentration ½ time) prepared with Detection buffer were added.
10) Centrifugation was performed at 1000 rpm at 23° C. for 30 s.
11) Incubation was performed at 23° C. for 60 min.
12) The data was read with Envision, and the ratio was calculated to obtain the IC50 of the compound for inhibiting the enzyme activity.

Sequence of EGFR (C797S/T790M/L858R) (P00533 25-1210 T790M/C797S/L858R): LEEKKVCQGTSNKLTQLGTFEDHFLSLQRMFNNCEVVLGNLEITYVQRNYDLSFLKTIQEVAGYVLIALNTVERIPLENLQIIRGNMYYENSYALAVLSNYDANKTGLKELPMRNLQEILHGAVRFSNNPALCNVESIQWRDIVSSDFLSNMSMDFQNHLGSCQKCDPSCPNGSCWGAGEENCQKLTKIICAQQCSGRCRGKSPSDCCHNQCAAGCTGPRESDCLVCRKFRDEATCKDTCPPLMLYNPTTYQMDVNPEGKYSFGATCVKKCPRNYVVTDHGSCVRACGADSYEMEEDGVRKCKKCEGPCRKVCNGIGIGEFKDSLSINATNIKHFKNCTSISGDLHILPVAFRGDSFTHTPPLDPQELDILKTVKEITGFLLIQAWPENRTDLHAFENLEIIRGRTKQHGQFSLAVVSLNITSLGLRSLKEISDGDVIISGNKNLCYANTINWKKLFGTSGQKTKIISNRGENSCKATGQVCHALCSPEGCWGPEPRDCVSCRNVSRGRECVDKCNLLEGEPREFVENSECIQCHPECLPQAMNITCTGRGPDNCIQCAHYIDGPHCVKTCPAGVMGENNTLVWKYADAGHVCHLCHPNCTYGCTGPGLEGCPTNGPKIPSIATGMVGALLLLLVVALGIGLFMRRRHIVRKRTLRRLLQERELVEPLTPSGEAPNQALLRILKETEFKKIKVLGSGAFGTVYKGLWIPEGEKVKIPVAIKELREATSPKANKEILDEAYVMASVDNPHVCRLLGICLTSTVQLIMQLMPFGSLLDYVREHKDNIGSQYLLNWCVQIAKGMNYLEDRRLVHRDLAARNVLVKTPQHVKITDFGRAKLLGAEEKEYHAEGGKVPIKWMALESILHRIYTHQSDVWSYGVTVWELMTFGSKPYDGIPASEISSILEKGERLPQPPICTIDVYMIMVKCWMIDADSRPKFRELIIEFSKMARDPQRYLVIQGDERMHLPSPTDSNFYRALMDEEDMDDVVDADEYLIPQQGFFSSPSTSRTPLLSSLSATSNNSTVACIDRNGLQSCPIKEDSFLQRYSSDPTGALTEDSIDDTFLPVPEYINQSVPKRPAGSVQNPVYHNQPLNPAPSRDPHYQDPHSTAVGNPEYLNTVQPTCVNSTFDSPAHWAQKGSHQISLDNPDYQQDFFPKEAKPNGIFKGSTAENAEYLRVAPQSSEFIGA
Sequence of EGFR (WT) (P00533 25-1210): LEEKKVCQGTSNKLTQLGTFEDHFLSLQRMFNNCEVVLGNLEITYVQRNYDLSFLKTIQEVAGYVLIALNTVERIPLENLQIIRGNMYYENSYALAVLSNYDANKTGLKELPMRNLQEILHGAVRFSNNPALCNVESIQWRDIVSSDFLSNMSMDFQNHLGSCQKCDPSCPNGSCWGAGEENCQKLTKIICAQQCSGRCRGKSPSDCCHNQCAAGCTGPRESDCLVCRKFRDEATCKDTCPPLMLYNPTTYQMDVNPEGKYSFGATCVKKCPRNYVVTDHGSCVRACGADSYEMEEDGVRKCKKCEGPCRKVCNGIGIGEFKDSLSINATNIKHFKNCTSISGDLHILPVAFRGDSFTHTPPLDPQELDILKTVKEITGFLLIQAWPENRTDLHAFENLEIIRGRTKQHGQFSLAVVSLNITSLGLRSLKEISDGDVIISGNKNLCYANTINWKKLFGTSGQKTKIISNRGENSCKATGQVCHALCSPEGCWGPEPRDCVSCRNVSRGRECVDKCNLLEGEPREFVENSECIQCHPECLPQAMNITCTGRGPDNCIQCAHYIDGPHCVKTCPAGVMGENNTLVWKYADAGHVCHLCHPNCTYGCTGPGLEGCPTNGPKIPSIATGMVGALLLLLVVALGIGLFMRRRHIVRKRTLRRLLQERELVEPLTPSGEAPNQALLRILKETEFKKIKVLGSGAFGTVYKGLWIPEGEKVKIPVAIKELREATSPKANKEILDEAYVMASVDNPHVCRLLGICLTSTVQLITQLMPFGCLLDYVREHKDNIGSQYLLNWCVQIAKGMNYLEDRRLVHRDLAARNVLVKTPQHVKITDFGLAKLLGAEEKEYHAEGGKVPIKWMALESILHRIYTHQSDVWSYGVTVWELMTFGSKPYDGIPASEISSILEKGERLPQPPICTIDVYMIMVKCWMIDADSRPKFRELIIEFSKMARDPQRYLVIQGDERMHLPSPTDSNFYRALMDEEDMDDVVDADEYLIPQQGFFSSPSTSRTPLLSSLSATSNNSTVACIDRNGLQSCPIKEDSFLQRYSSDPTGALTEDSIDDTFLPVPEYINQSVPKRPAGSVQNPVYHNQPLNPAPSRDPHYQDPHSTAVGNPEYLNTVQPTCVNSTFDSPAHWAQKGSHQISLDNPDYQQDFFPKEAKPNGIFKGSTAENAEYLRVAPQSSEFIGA
Sequence of EGFR (Δ19del/T790M/C797S) (P00533 25-1210 T790M/C797S limits assumed, form open): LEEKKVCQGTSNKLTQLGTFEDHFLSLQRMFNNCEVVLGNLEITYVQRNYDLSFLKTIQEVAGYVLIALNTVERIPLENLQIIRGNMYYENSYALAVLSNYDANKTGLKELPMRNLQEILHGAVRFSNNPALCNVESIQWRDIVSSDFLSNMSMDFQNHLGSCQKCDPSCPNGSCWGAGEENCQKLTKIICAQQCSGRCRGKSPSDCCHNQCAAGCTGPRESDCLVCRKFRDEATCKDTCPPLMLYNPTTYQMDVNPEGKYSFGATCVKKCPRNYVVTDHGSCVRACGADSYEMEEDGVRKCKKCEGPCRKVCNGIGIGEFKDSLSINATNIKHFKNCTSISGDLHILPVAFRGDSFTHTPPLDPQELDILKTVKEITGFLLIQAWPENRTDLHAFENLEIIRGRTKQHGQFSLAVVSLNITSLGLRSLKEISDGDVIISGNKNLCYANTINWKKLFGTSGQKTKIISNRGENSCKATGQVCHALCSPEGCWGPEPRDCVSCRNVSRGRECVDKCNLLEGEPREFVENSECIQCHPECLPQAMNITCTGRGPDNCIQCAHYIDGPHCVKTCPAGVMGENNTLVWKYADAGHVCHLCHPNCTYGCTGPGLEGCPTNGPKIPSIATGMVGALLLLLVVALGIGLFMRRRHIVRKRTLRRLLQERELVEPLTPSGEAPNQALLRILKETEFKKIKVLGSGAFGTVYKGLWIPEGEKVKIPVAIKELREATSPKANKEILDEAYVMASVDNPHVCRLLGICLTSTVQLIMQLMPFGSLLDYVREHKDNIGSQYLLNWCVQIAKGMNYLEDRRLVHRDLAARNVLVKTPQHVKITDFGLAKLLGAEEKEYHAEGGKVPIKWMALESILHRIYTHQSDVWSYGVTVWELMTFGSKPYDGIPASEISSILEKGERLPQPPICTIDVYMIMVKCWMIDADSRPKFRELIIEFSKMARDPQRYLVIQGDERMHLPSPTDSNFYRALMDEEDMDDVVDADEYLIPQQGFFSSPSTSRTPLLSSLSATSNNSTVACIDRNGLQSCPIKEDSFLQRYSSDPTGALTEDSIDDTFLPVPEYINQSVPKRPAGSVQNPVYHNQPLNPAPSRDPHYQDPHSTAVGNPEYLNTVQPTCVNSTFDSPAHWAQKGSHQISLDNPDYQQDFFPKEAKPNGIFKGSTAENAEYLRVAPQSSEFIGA

Row | Compound | IC50 [1] [nM] | IC50 [2] [nM] | IC50 [3] [nM] | IC50 [4] [nM]
1 | COc1cc(N2CCC(N3CCN(C)CC3)CC2)c(C)cc1Nc1ncc(Br)c(Nc2ccc3nccnc3c2P(C)(C)=O)n1 [Compound 34] | 154 |  |  | 
2 | CCc1cc(Nc2ncc(Br)c(Nc3ccc4nccnc4c3P(C)(C)=O)n2)c(OC)cc1N1CCC(N2CCN(C)CC2)CC1 [Compound 41] | 245 | 5.12 | 0.26 | 0.212
